Laboratory results from patent publication US8114877B2, “Organic compounds” (Novartis AG, priority 2005, dated 2012).
pKi: −log10 of the molar value. Where a name gives a salt, the structure may show the parent alone.

Target: adenosine A2A receptor (Homo sapiens, UniProt P29274)
Assay: adenosine A2A receptor agonist assay, method of Murphree et al, Molecular Pharmacology 61, 455-462 (2002)
Format: binding
Settings: method of L. J. Murphree et al
Excerpt: Compounds of formula I and their pharmaceutically acceptable salts are useful as pharmaceuticals. In particular, they activate the adenosine A2A receptor, i.e. they act as A2A receptor agonists.

Sequence of adenosine A2A receptor (P29274 whole entry): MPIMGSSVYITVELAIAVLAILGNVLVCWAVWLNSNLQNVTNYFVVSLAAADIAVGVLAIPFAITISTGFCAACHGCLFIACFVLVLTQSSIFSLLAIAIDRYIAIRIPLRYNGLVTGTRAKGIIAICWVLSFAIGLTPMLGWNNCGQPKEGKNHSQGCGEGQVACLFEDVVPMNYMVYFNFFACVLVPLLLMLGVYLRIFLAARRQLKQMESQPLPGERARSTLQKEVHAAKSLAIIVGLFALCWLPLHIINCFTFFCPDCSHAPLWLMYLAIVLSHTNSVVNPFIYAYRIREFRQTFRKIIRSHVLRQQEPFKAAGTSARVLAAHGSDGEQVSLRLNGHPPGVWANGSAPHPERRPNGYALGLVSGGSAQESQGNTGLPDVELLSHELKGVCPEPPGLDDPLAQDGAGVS

Cc1nnn([C@H]2C[C@@H](n3cnc4c(NCC(c5ccccc5)c5ccccc5)nc(N[C@@H]5CCNC5)nc43)[C@H](O)[C@@H]2O)n1 [Example 7, (1R,2S,3R,5S)-3-[6-(2,2-Diphenyl-ethylamino)-2-((R)-pyrrolidin-3-ylamino)-purin-9-yl]-5-(5-methyl-tetrazol-2-yl)-cyclopentane-1,2-diol trifluoroacetate]
pKi: 7.37

NC1CCC(Nc2nc(NCC(c3ccccc3)c3ccccc3)c3ncn(C4CC(n5cccn5)C(O)C4O)c3n2)CC1 [Example 12, (1R,2S,3R,1S)-3-[2-(4-Amino-cyclohexylamino)-6-(2,2-diphenyl-ethylamino)-purin-9-yl]-5-pyrazol-1-yl-cyclopentane-1,2-diol]
pKi: 6.57
